# In patent publication US20090029856A1, “Hinokitiol As A Plant Pesticide” (priority 2007, published 2009):
# “And” between values parts separate entries of the source, which are not always exact repeats. Equal entries are not always repeated.
# What was measured:
# Colletotrichum acutatum = experiment: Spiral gradient dilution method, inhibition of mycelial growth; assay type: cell-based; details: PDA, 20° C., hinokitiol in acetone
# Protocol: (§1) In this method, a potato dextrose agar (PDA) medium is plated with the test solution by means of a spiral plater, which applies the compound in a 2.5-log dilution in a continuous radial concentration gradient. Fungal inoculum in two replicates is then placed along radial lines across the gradient. […] EC50 values were calculated based on these measurements. The fungi evaluated were members of the following families Anamorphic Phyllachoraceae (Colletotrichum acutatum), Anamorphic Sclerotiniaceae (Botrytis cinerea), Mitosporic fungi (Verticillium dahlias; Microphomina sp.), and Oomycota (Phytophtora capsici). Hinokitiol (5 mg/mL) was dissolved in acetone, and acetone alone was also used as a control to check for non-specific inhibition.
# Microphomina sp. = experiment: as above; assay type: cell-based; details: PDA, 20° C., hinokitiol in acetone
# Protocol: as §1
# Phytophtora capsici = experiment: as above; assay type: cell-based; details: PDA, 20° C., hinokitiol in acetone
# Protocol: as §1
# Verticillium dahliae = experiment: as above; assay type: cell-based; details: PDA, 20° C., hinokitiol in acetone
# Protocol: as §1
# Geotrichum = experiment: Hinokitiol spiral PDA plates, growth after 2 days; assay type: cell-based; details: 2 days of incubation
# Protocol: as §1
# (§2) Another set of hinokitiol spiral PDA plates prepared as above were inoculated with plant pathogenic fungi from the genera Mucor, Rhizoctonia, Geotrichum, Phoma, and Penicillium.
# Mucor = experiment: Hinokitiol spiral PDA plates, growth after 2 days; assay type: cell-based; details: 2 days of incubation
# Protocol: as §1, §2
# Penicillium = experiment: Hinokitiol spiral PDA plates, growth after 2 days; assay type: cell-based; details: 2 days of incubation
# Protocol: as §1, §2
# Phoma = experiment: Hinokitiol spiral PDA plates, growth after 2 days; assay type: cell-based; details: 2 days of incubation
# Protocol: as §1, §2
# Rhizoctonia = experiment: Hinokitiol spiral PDA plates, growth after 2 days; assay type: cell-based; details: 2 days of incubation
# Protocol: as §1, §2
# [1] = tested on: grey mold (Botrytis cinerea); experiment: In vivo greenhouse test on green bell pepper (Capsicum annuum) against grey mold; details: for Average (mean) disease rating, 2 days / Average (mean) disease rating, 3 days / Average (mean) disease rating, 7 days: mean of 3 replicates; for rating at day 3 / rating at day 7 / rating at day 2: single replicates
# Protocol: To further test the inhibitory effect of hinokitiol on grey mold (Botrytis cinerea), an in vivo test on green bell pepper (Capsicum annuum) was conducted in a greenhouse. Pepper plants at a 6-true-leaf growth stage were sprayed with hinokitiol in 50% ethanol. The stock solution (5 mg/mL) was prepared in 97% ethanol, and diluted to following concentrations: 0, 0.01, 0.1 mg/mL. To compare the efficacy of hinokitiol in an alcohol-free solution, a treatment with 0.1 mg/mL of hinokitiol in water was included in this study. Pepper plants with no treatment were used as controls. All treatments were carried out in 3 replicates. After treatment with hinokitiol, the leaf surfaces were allowed to dry under the growth lights, after which the plants were inoculated with a B. cinerea spore solution containing 2×10^6 spores per mL. Inoculated plants were incubated in the dark in a covered flat at 22° C. […] Symptoms were rated on a scale of 0-5; 0 indicating no lesions on leaves, and 5 indicating severe rotting/dead plant.
# [2] = tested on: Lactuca sativa (lettuce) seeds; experiment: 96-well seed germination inhibition screen; assay type: in vivo; details: single lettuce seed per well, 50 μL solution, 5× dilution series
# Protocol: Numerous natural compounds were screened for their ability to inhibit the germination of dicot (broadleaved weed) seeds. A single seed of Lactuca sativa (lettuce) was placed in each well of a 96-well plate followed by 50 μL of a solution of each compound in a stepwise (5×) dilution series from 25% to 0%. Germination was monitored daily. Based on this screening study, the threshold value for hinokitiol to inhibit germination of seeds was determined at 0.32 mg/L.
# Botrytis gray mold = Botrytis gray mold on pepper plants, formulation applied pre and post infection; assay type: in vivo
# Protocol: Pepper plants (California Wonder Bell Pepper) were treated with a 3.2% Hinokitiol formulation containing propylene glycol, nonphytotoxic ethoxylate fatty esters; butanol, EDTA, UV protection agent, 1% of a 15% solution of sodium hydroxide and water 3 hours before and 24 hours after inoculation (pre and post infection, respectively). Hinokitiol concentration in pre-infection application was 1.0% v/v and for post-infection application was 2.0% v/v. Three plants were included per treatment in pre-infection applications, and 18 plants in post-infection treatments. The formulation employed contained 3.2% of active ingredient. Inoculation was performed with a conidial suspension of 1.8×10^6 conidia per ml of 75% PDB (Potato Dextrose Broth). Scale of evaluation was 0=no infection, 1=Small scattered lesions, 2=Scattered big lesions or small ones covering more than 50% of leaf surface, 3=Half plant dead, 4=75% of the plant dead, 5=Entire plant dead. Evaluation was performed 3 days after inoculation.
# [3] = tested on: spurge, white clover, annual bluegrass and crab grass; experiment: Field study of herbicidal effect, % weed control; assay type: in vivo
# Protocol: A hinokitiol formulation containing 32.4% of hinokitiol by weight was tested in a field study. The formulation also contained dispersing agent, water and emulsifier. The two concentrations tested contained 5% and 0.5% hinokitiol (w/w), and the spraying volume was 100 gallons per acre. Three replicate 1-square-foot plots were sprayed with the appropriate solutions, and the % weed control in each plot was recorded at 3, 7, 14 and 20 days after treatment. The main weeds in this study were spurge, white clover, annual bluegrass and crab grass.
# Fusarium sp (FUSM) = experiment: Spiral plating method, growth inhibition; assay type: cell-based; details: average distance of inhibition / 28 mm × 100
# Protocol: The spiral plating method was used to deposit the fungicides on PDA and TSA plates with exponential logarithmic decrease of product concentration from the centre to the edge of the plate. The plates were left standing for four hours and inoculated with the fungus and bacteria. There were four repetitions of the same microorganism done per plate and there was one replica of each plate.
# The plates were cultured for 3 days before measurements of growth were taken. The ‘distance of inhibition’ indicates the length of the zone with no growth, measured from center edge of the agar, the ‘colony width ratio’ indicates the ratio of the width of growth measured at the zero concentration and width at the highest concentration with growth.
# [4] = 0.01 mg/mL in 50% ethanol, scale 0-5
# [5] = 0.1 mg/mL in 50% ethanol, scale 0-5
smiles,measurement,setting,value
"CC(C)c1cccc(=O)c(O)c1 [Hinokitiol, 4-isopropyl tropolone]",EC50,Colletotrichum acutatum,12 µg/mL
same,EC50,Microphomina sp.,11 µg/mL
same,EC50,Phytophtora capsici,12 µg/mL
same,EC50,Verticillium dahliae,11 µg/mL
same,inhibition of growth,Geotrichum,complete inhibition
same,inhibition of growth,Mucor,complete inhibition
same,inhibition of growth,Penicillium,complete inhibition
same,inhibition of growth,Phoma,complete inhibition
same,inhibition of growth,Rhizoctonia,complete inhibition
same,"Average (mean) disease rating, 2 days","[1]; 0.01 mg/mL EtOH, scale 0-5",1.7 a
same,"Average (mean) disease rating, 3 days","[1]; 0.01 mg/mL EtOH, scale 0-5",2.7 ab
same,"Average (mean) disease rating, 7 days","[1]; 0.01 mg/mL EtOH, scale 0-5",3.0 ab
same,rating at day 3,[1]; [4],4 and 3 and 1
same,rating at day 7,[1]; [4],5 and 3 and 1
same,rating at day 2,"[1]; 0.01 mg/mL in 50% ethanol, scale 0-5 (0 no lesions, 5 severe rotting/dead plant)",2 (2×) and 1
same,"Average (mean) disease rating, 2 days","[1]; 0.1 mg/mL EtOH, scale 0-5",1.7 a
same,"Average (mean) disease rating, 3 days","[1]; 0.1 mg/mL EtOH, scale 0-5",2.7 ab
same,"Average (mean) disease rating, 7 days","[1]; 0.1 mg/mL EtOH, scale 0-5",4.0 ab
same,"Average (mean) disease rating, 2 days","[1]; 0.1 mg/mL H2O, scale 0-5",0.3 b
same,"Average (mean) disease rating, 3 days","[1]; 0.1 mg/mL H2O, scale 0-5",0.7 b
same,"Average (mean) disease rating, 7 days","[1]; 0.1 mg/mL H2O, scale 0-5",2.3 b
same,rating at day 2,[1]; [5],2 (2×) and 1
same,rating at day 3,[1]; [5],3 (2×) and 2
same,rating at day 7,[1]; [5],5 (2×) and 2
same,rating at day 2,"[1]; 0.1 mg/mL in water, scale 0-5",0 (2×) and 1
same,rating at day 3,"[1]; 0.1 mg/mL in water, scale 0-5",0 and 1 (2×)
same,rating at day 7,"[1]; 0.1 mg/mL in water, scale 0-5",1 and 2 and 4
same,incidence of B. cinerea compared with untreated control pepper plants,[1]; 0.1 mg/mL water,significantly lower
same,disease outbreak and final disease incidence compared with untreated control,[1]; dissolved in ethanol at 0.01 and 0.1 mg/mL,postponed the disease outbreak but the final disease incidence was not significantly different from the untreated control
same,threshold value to inhibit germination of seeds,[2],0.32 mg/L
same,number of pepper plants at scale of infection 2,"Botrytis gray mold; 0.64 mg/ml, 24 hr after inoculation, of 18 plants per rep",12 and 7
same,number of pepper plants at scale of infection 4,"Botrytis gray mold; 0.64 mg/ml, 24 hr after inoculation, of 18 plants per rep, 4 = 75% of the plant dead",1 and 2
same,"intensity of disease (scale of severity 0-5), single plants","Botrytis gray mold; 3.2% hinokitiol formulation at 1.0% v/v (0.32 mg/ml), applied 3 hr before inoculation, evaluated 3 days after inoculation, 1 = small scattered lesions, 5 = entire plant dead",1
same,visible symptoms of disease or phytotoxicity on pepper plants,Botrytis gray mold; hinokitiol formulation at 1% (0.32 mg/ml) dilution,did not show any visible syptoms of disease or phytotocicity
same,% weed control,"[3]; 0.5% hinokitiol (w/w), 3 DAYS",3.3%
same,% weed control,"[3]; 0.5% hinokitiol (w/w), 7 DAYS",3.7%
same,% weed control,"[3]; 0.5% hinokitiol (w/w), 14 DAYS",1.7%
same,% weed control,"[3]; 0.5% hinokitiol (w/w), 20 DAYS",3.0%
same,% weed control,"[3]; 5.0% hinokitiol (w/w), 7 DAYS",90.3%
same,% weed control,"[3]; 5.0% hinokitiol (w/w), 14 DAYS",88.3%
same,% weed control,"[3]; 5.0% hinokitiol (w/w), 20 DAYS",83.7%
same,% weed control,"[3]; 5.0% hinokitiol (w/w), 100 gallons per acre, 3 DAYS",86.7%
same,weeds controlled,"[3]; formulation containing 5% (w/w) hinokitiol, one week after spraying",more than 90%
same,herbicidal effect on weeds,[3]; same solution at 10× lower concentration,negligible effect
same,% inhibition of growth,Fusarium sp (FUSM),32%
